In experiment [1] the target is T1, Avi-KRAS WT (2-169) GTP/RAF1 RBD-3xFLAG (51-131) (Homo sapiens, UniProt P01116).
T1 construct: Avi-KRAS WT (2-169)
The experiment can be described thus: Raf1-KRAS WT-GTP disruption HTRF assay (Biological Example 3). The class given is binding. As to conditions: KRAS WT, GTP-loaded. The gist of the method:
(§1)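 Compounds were titrated 10-point, 3-fold from 30 μM against preformed KRAS-GTP:RAF1 RBD (51-131) complexes at 50 nM, using KRAS 2-169 as WT, G12C, G12D or G12V. After 1 h at room temperature in Tris pH 7.5 buffer with MgCl2 and 10% DMSO, time-resolved fluorescence was read. Results are percent activity versus DMSO.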

Experiment [2] has as its system SW620 cells (KRAS G12V). Nature of the experiment: Cell-based pERK HTRF assay in SW620 cell (Biological Example 4). A digest of the protocol: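 Read-out: HTRF pERK signal (excitation 320 nm, emission 615 nm) from lysates of SW620 cells after 4 h compound exposure. Dose range was 9 points, half-log steps from 1 μM, in 0.25% DMSO; antibody incubation ran 4–24 h at room temperature.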
(In general: Time-resolved FRET reads energy transfer from a long-lived donor to a nearby acceptor.)

In experiment [3] the target is T2, Avi-KRAS G12V (1-169) GppNHp/RAF1 RBD-3xFLAG (52-151) (Homo sapiens, UniProt P01116, G12V).
T2 construct: Avi-KRAS G12V (1-169)
T2 sequence (P01116 1-169 isoform P01116-2 G12V): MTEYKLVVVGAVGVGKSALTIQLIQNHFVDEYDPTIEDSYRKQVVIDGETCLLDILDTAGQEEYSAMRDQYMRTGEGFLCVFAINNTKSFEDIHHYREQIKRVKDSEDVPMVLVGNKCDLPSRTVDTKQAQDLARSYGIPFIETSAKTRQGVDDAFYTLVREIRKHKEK
The experiment can be described thus: Raf1-KRAS G12V-GppNHP disruption HTRF assay (Biological Example 1). The experiment is classed as binding. The gist of the method:
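Using HTRF, the loss of KRAS–effector RAF1 complex was quantified in 50 mM Tris pH 7.5 buffer with 100 mM NaCl and 0.1% BSA. The protein step and reagent step ran 1 h each at room temperature. Activity normalized with DMSO taken as 100%.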

Experiment [4] concerns the target T3, Avi-KRAS G12D (2-169) GTP/RAF1 RBD-3xFLAG (51-131) (Homo sapiens, UniProt P01116, G12D).
T3 construct: Avi-KRAS G12D (2-169)
Nature of the experiment: Raf1-KRAS G12D-GTP disruption HTRF assay (Biological Example 3). The class given is binding. The settings on record: KRAS G12D, GTP-loaded. The gist of the method:
as §1

Where [5] appears, read: Homo sapiens, SW-620, SW620 (KRAS G12V) cells.
Where [6] appears, read: Homo sapiens, SW-620, SW620 (KRAS G12V) cells, pERK HTRF, class symbols.
The mark [7] stands for this setting: KRAS G12V, GppNHp-loaded, class symbols.
Setting [8] is: SW620 (KRAS G12V) cells, pERK HTRF.
Setting [9] is: KRAS G12V, GppNHp-loaded, Table 11.
[10] abbreviates: Homo sapiens, SW-620, SW620 (KRAS G12V) cells, pERK HTRF.

The structures appear in SMILES notation.

T1 sequence (P01116 2-169 isoform P01116-2): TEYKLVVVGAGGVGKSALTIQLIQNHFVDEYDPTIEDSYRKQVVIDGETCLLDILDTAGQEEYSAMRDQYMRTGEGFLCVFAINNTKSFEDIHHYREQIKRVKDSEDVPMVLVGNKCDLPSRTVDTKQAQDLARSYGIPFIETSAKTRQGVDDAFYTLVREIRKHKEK
T3 sequence (P01116 2-169 isoform P01116-2 G12D): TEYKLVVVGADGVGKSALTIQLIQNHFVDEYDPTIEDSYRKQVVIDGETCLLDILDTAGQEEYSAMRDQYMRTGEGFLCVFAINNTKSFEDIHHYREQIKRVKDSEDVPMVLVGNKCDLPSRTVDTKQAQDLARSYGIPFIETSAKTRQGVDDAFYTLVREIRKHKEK

Turning to `CCN(c1nc(OC[C@@]23CCCN2C[C@H](F)C3)nc2c(F)c(-c3ccc(F)c4sc(N)c(C#N)c34)c(C(F)(F)F)cc12)[C@H]1CCN(C(=O)N(C)C)[C@@H]1C` (atropisomer, axis not shown) [Compound 749], the IC50 (as a rule, the concentration needed to halve the response being measured) is not above 100 nM in experiment [1]; less than 100 nM in experiment [2] (setting [5]); less than 100 nM in experiment [2] (setting [6]); less than 100 nM in experiment [3] (setting [7]); not above 100 nM in experiment [4].

Take `CCN(c1nc(OC[C@@]23CCCN2C[C@H](F)C3)nc2c(F)c(-c3ccc(F)c4sc(N)c(C#N)c34)c(C(F)(F)F)cc12)[C@H]1C[C@@H](C)N(C(=O)[C@H]2CCO2)C1` (atropisomer, axis not shown) [Compound 752]: the IC50 in experiment [1] was 100 to 1000 nM; in experiment [2] (setting [5]), less than 100 nM; in experiment [2] (setting [6]), less than 100 nM; in experiment [3] (setting [7]) it was 100 to 1000 nM; in experiment [4], 100 to 1000 nM.

In the case of `CCN(c1nc(OC[C@@]23CCCN2C[C@H](F)C3)nc2c(F)c(-c3ccc(F)c4sc(N)c(C#N)c34)c(C(F)(F)F)cc12)[C@H]1C[C@H](C)N(C(=O)N2CC(OC)C2)C1` (atropisomer, axis not shown) [Compound 764], the IC50 is 100 to 1000 nM in experiment [1]; less than 100 nM in experiment [2] (setting [5]); less than 100 nM in experiment [2] (setting [6]); less than 100 nM in experiment [3] (setting [7]); not above 100 nM in experiment [4].

On to `CCN(c1nc(OC[C@@]23CCCN2C[C@H](F)C3)nc2c(F)c(-c3ccc(F)c4sc(N)c(C#N)c34)c(C(F)(F)F)cc12)[C@H]1C[C@H]2CCC(=O)N2C1` (atropisomer, axis not shown; (aR)) [Compound 573, 2-amino-4-((S)-4-(ethyl((2S,7aR)-5-oxohexahydro-1H-pyrrolizin-2-yl)amino)-8-fluoro-2-(((2R,7aS)-2-fluorotetrahydro-1H-pyrrolizin-7a(5H)-yl)methoxy)-6-(trifluoromethyl)quinazolin-7-yl)-7-fluorobenzo[b]thiophene-3-carbonitrile], for which the IC50 in experiment [1] was not above 100 nM; in experiment [2] (setting [5]) it was less than 100 nM; in experiment [2] (setting [6]), less than 100 nM; in experiment [3] (setting [7]) it was less than 100 nM; in experiment [4] it was not above 100 nM.

Regarding `Cc1c(C(=O)N(C)C)nn2c1CN(c1nc(OC[C@@]34CCCN3C[C@H](F)C4)nc3c(F)c(-c4ccc(F)c5sc(N)c(C#N)c45)c(C(F)(F)F)cc13)CC2` (atropisomer, axis not shown; (aS)) [Compound 590, 5-((S)-7-(2-amino-3-cyano-7-fluorobenzo[b]thiophen-4-yl)-8-fluoro-2-(((2R,7aS)-2-fluorotetrahydro-1H-pyrrolizin-7a(5H)-yl)methoxy)-6-(trifluoromethyl)quinazolin-4-yl)-N,N,3-trimethyl-4,5,6,7-tetrahydropyrazolo[1,5-a]pyrazine-2-carboxamide], the IC50 in experiment [1] was 100 to 1000 nM; in experiment [2] (setting [6]) it was less than 100 nM; in experiment [2] (SW620 (KRAS G12V) cells), less than 100 nM; in experiment [3] (setting [7]), less than 100 nM; in experiment [4], 100 to 1000 nM.

Take `CCN(c1nc(OC[C@@]23CCCN2C[C@H](F)C3)nc2c(F)c(-c3ccc(F)c4sc(N)c(C#N)c34)c(C(F)(F)F)cc12)[C@H]1CC(=O)N2CCC[C@@H]12` (atropisomer, axis not shown; (aS)) [Compound 697, 2-amino-4-((S)-4-(ethyl((1S,7aS)-3-oxohexahydro-1H-pyrrolizin-1-yl)amino)-8-fluoro-2-(((2R,7aS)-2-fluorotetrahydro-1H-pyrrolizin-7a(5H)-yl)methoxy)-6-(trifluoromethyl)quinazolin-7-yl)-7-fluorobenzo[b]thiophene-3-carbonitrile]: the IC50 in experiment [1] was not above 100 nM; in experiment [2] (setting [5]) it was less than 100 nM; in experiment [2] (setting [6]), less than 100 nM; in experiment [3] (setting [7]) it was less than 100 nM; in experiment [4] it was not above 100 nM.

With `CC(=O)N1CC[C@@H](N(C)c2nc(OC[C@@]34CCCN3C[C@H](F)C4)nc3c(F)c(-c4ccc(F)c5sc(N)c(C#N)c45)c(C(F)(F)F)cc23)[C@H]1C` (single isomer, unassigned) [Compound 193], the half-maximal inhibitory concentration (IC50) in experiment [1] is 100 to 1000 nM; in experiment [2] (setting [5]) it was less than 100 nM; in experiment [2] (setting [8]), less than 100 nM; in experiment [3] (setting [9]), less than 100 nM; in experiment [4] it was 100 to 1000 nM.

Take `N#Cc1c(N)sc2c(F)ccc(-c3c(C(F)(F)F)cc4c(N5CCOCC5)nc(OC[C@@]56CCCN5C[C@H](F)C6)nc4c3F)c12` (single isomer, unassigned) [Compound 198]: the IC50 is 100 to 1000 nM in experiment [1]; less than 100 nM in experiment [2] (setting [5]); less than 100 nM in experiment [2] (setting [8]); 100 to 1000 nM in experiment [3] (setting [9]); 100 to 1000 nM in experiment [4].

As to `N#Cc1c(N)sc2c(F)ccc(-c3c(C(F)(F)F)cc4c(N5CC6CC(C5)O6)nc(OC[C@@]56CCCN5C[C@H](F)C6)nc4c3F)c12` (single isomer, unassigned) [Compound 275], the 50% inhibitory concentration (IC50) in experiment [1] is 100 to 1000 nM; in experiment [2] (setting [5]) it was less than 100 nM; in experiment [2] (setting [10]) it was less than 100 nM; in experiment [3] (setting [9]), 100 to 1000 nM; in experiment [4] it was 100 to 1000 nM.

Consider `N#Cc1c(N)sc2c(F)ccc(-c3c(C(F)(F)F)cc4c(N5C[C@H]6C[C@@H]5CO6)nc(OC[C@@]56CCCN5C[C@H](F)C6)nc4c3F)c12` (single isomer, unassigned) [Compound 287], for which the 50% inhibitory concentration (IC50) in experiment [1] is 100 to 1000 nM; in experiment [2] (setting [5]), less than 100 nM; in experiment [2] (setting [10]), less than 100 nM; in experiment [3] (KRAS G12V-GppNHp/RAF1 RBD HTRF), 100 to 1000 nM; in experiment [4] it was 100 to 1000 nM.

On to `CN(c1nc(OC[C@@]23CCCN2C[C@H](F)C3)nc2c(F)c(-c3ccc(F)c4sc(N)c(C#N)c34)c(C(F)(F)F)cc12)[C@H]1C[C@@H](O)C1` [Compound 19, 2-amino-7-fluoro-4-((S)-8-fluoro-2-(((2R,7aS)-2-fluorotetrahydro-1H-pyrrolizin-7a(5H)-yl)methoxy)-4-(((1s,3R)-3-hydroxycyclobutyl)(methyl)amino)-6-(trifluoromethyl)quinazolin-7-yl)benzo[b]thiophene-3-carbonitrile], for which the concentration for half-maximal inhibition (IC50) in experiment [1] was not above 100 nM; in experiment [2] (SW620 (KRAS G12V) cells) it was less than 100 nM; in experiment [2] (setting [8]), less than 100 nM; in experiment [3] (setting [9]), less than 100 nM; in experiment [4] it was not above 100 nM.

As to `N#Cc1c(N)sc2c(F)ccc(-c3c(C(F)(F)F)cc4c(N5CC6CC(C5)O6)nc(OC[C@@]56CCCN5C[C@H](F)C6)nc4c3F)c12` [Compound 145], the IC50 is 1000 to 10000 nM in experiment [1]; less than 100 nM in experiment [2] (setting [5]); less than 100 nM in experiment [2] (setting [10]); 100 to 1000 nM in experiment [3] (setting [9]); 100 to 1000 nM in experiment [4].

On to `N#Cc1c(N)sc2c(F)ccc(-c3c(C(F)(F)F)cc4c(N5CCCOCC5)nc(OC[C@@]56CCCN5C[C@H](F)C6)nc4c3F)c12` [Compound 232], for which the half-inhibitory concentration (IC50) in experiment [1] was 100 to 1000 nM; in experiment [2] (setting [5]) it was less than 100 nM; in experiment [2] (setting [10]), less than 100 nM; in experiment [3] (setting [9]), 100 to 1000 nM; in experiment [4] it was 100 to 1000 nM.

As for `N#Cc1c(N)sc2c(F)ccc(-c3c(C(F)(F)F)cc4c(N5CCNS(=O)(=O)CC5)nc(OC[C@@]56CCCN5C[C@H](F)C6)nc4c3F)c12` [Compound 245], the 50% inhibitory concentration (IC50) is 100 to 1000 nM in experiment [1]; less than 100 nM in experiment [2] (setting [5]); less than 100 nM in experiment [2] (setting [10]); 100 to 1000 nM in experiment [3] (setting [9]); 100 to 1000 nM in experiment [4].

Turning to `N#Cc1c(N)sc2c(F)ccc(-c3c(C(F)(F)F)cc4c(N5C[C@H]6C[C@@H]5CO6)nc(OC[C@@]56CCCN5C[C@H](F)C6)nc4c3F)c12` [Compound 253, 2-amino-7-fluoro-4-[8-fluoro-2-[[(2R,8S)-2-fluoro-1,2,3,5,6,7-hexahydropyrrolizin-8-yl]methoxy]-4-[(1R,4R)-2-oxa-5-azabicyclo[2.2.1]heptan-5-yl]-6-(trifluoromethyl)quinazolin-7-yl]benzothiophene-3-carbonitrile], the IC50 was 100 to 1000 nM in experiment [1]; less than 100 nM in experiment [2] (setting [5]); 100 to 1000 nM in experiment [2] (setting [10]); 100 to 1000 nM in experiment [3] (setting [9]); 100 to 1000 nM in experiment [4].

In the case of `CCN(c1nc(OC[C@@]23CCCN2C[C@H](F)C3)nc2c(F)c(-c3ccc(F)c4sc(N)c(C#N)c34)c(C(F)(F)F)cc12)[C@H]1CCN(C(C)=O)C1` [Compound 262], the IC50 in experiment [1] was 100 to 1000 nM; in experiment [2] (setting [5]) it was less than 100 nM; in experiment [2] (setting [10]), less than 100 nM; in experiment [3] (setting [9]), less than 100 nM; in experiment [4], not above 100 nM.

Consider `CCN(c1nc(OC[C@@]23CCCN2C[C@H](F)C3)nc2c(F)c(-c3ccc(F)c4sc(N)c(C#N)c34)c(C(F)(F)F)cc12)[C@@H]1CCN(C(C)=O)C1` [Compound 268], for which the half-maximal inhibitory concentration (IC50) in experiment [1] is 100 to 1000 nM; in experiment [2] (setting [5]) it was less than 100 nM; in experiment [2] (setting [10]), less than 100 nM; in experiment [3] (setting [9]), 100 to 1000 nM; in experiment [4], 100 to 1000 nM.

The values above are taken from patent US20260042764A1, “COMPOSITIONS AND METHODS FOR INHIBITION OF KRAS” (TheRas, Inc., priority 2022, published 2026).
